The values below come from US10278957B2, “Opioid agonist peptides and uses thereof” (Protagonist Therapeutics, Inc., priority 2017, dated 2019).

The target in one test is T1, μ-opioid receptor (MOR) (Homo sapiens, UniProt P35372).
T1 construct: host or cells: cAMP Hunter CHO-K1 OPRM1 Gαi cell line
The experiment in a line: MOR agonist cAMP assay (HitHunter cAMP, forskolin-stimulated). It counts as cell-based. The procedure: The HitHunter® cAMP chemiluminescent assay kit (DiscoveRx, Cat# 90-0075 SM25) was used to detect cAMP production in cAMP Hunter™ Gαi cell lines over expressing either Human-ORPM1 (Discoverx, Catalog# 95-0107C2) or Human-ORPD1 (DiscoveRx, Catalog# 95-0108C2). Opioid agonist binding to the Gαi receptors inhibits the intracellular cAMP accumulation induced by forskolin, which activates adenylate cyclase and increases intracellular levels of cAMP.
Cells were cultured in media consisting of Ham's F-12 Nutrient Mix (Life Technologies, Catalog#31765035), 10% FBS (Life Technologies, Catalog# 16140-071), 4 mM GlutaMAX (Life Technologies, Catalog#35050-061), […] (Life Technologies), 100 ug/ml of Penn-Strep (Life Technologies) and 0.5 mg/ml Geneticin (Life Technologies, Catalog# 10131-027). The cultures were maintained at 37° C. under 5% CO2.
In preparation for cAMP assay, the cells were seeded at a density of 300,000 cells/ml in 100 ul of media/well in 96-well microplate. Wells that were designated for cAMP standards were left empty.
Opioid agonist serial dilutions were prepared in separate dilution plate (11-point series of 3× (3-fold) dilution) in Cell Assay buffer, including 3× forskolin for Gαi target. For Hunter CHO-K1 OPRM1 or CHO-K1 OPRD1 Gαi Cell Lines, the final forskolin concentration was 20 uM.
15 ul of each 3× opioid agonist serial dilution was added in the presence of forskolin in duplicate to the designated wells. The final concentration of each dilution was at 3× of the final screening concentration. The assay plate was incubated for 30 min, at 37° C. under 5% CO2.
Cellular cAMP concentrations were measured using the HitHunter cAMP Assay kit following the manufacturer's protocol. HitHunter cAMP assay is a gain-of-signal competitive immunoassay based on Enzyme Fragment Complementation (EFC) technology. The kit uses β-galactosidase (β-gal) enzyme split into Enzyme Donor (ED) and Enzyme Acceptor (EA). The cellular cAMP and ED-labelled cAMP compete for anti-cAMP antibody. […] When cellular cAMP level is high, it competes for the anti-cAMP antibody, thereby releasing ED-cAMP to complement with EA to produce a luminescent signal. The amount of signal is directly proportional to the amount of cAMP in cells and can be quantified using cAMP standards. The assay plates were read using a PerkinElmer Envision instrument to detect the chemiluminescence signal in each well (luminescence reader at 0.1 to 1 second/well). Data analysis was performed using Graphpad Prism 7.EC50 was calculated by nonlinear regression, using the four-parameter hill equation.
In general terms: cAMP levels reflect the balance of adenylyl cyclase and phosphodiesterase activity.

The next test addresses T2, δ-opioid receptor (DOR) (Homo sapiens, UniProt P41143).
T2 construct: host or cells: cAMP Hunter CHO-K1 OPRD1 Gαi cell line
As to the kind of experiment: DOR agonist cAMP assay (HitHunter cAMP, forskolin-stimulated). It counts as cell-based. The method, boiled down: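 CHO-K1 Gαi cells expressing OPRM1 or OPRD1 were exposed 30 min at 37° C to 11-point threefold agonist dilutions, in duplicate, with 20 uM forskolin final. cAMP quantified by EFC chemiluminescent competitive immunoassay against cAMP standards. EC50 by four-parameter Hill nonlinear regression.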

A value given as a limit tells only on which side of the number the result lay.

T2 sequence (P41143 whole entry): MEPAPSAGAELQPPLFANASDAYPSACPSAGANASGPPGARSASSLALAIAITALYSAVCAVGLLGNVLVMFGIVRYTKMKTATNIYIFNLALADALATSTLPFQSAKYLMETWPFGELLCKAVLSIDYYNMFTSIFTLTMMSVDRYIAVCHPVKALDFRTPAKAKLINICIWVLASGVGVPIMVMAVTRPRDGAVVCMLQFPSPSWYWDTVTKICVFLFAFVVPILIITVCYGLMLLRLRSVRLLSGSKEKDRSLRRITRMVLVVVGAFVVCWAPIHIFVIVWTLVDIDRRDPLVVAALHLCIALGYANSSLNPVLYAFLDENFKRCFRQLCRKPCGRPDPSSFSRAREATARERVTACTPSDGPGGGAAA
T1 sequence (P35372 whole entry): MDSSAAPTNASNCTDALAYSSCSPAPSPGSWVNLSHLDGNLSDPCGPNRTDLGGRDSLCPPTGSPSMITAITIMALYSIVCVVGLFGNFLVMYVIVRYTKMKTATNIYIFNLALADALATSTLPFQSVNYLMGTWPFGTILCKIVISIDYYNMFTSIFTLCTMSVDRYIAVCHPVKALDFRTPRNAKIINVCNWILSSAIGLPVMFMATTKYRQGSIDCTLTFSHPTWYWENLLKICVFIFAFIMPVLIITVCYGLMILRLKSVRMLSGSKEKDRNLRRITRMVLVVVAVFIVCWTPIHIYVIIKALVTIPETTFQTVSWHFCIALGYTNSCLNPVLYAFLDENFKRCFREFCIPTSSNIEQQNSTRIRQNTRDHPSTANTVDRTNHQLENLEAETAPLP

As usually defined, the EC50 is the concentration giving half of the maximal effect. Low readings indicate higher potency in that assay, high ones lower potency in that assay. For the molecule `CCCC[C@@H](C(=O)O)N(C)C(=O)C[C@H](Cc1ccccc1F)NC(=O)CNC(=O)[C@@H](C)NC(=O)[C@@H](N)Cc1c(C)cc(O)cc1C` [compound 143], the EC50 at μ-opioid receptor (MOR) and at δ-opioid receptor (DOR) was less than 1 nM throughout.

In the case of `CCCC[C@@H](C(=O)O)N(C)C(=O)C[C@H](Cc1cccc(F)c1)NC(=O)CNC(=O)[C@@H](C)NC(=O)[C@@H](N)Cc1c(C)cc(O)cc1C` [compound 144], the EC50 on μ-opioid receptor (MOR) and on δ-opioid receptor (DOR) was less than 1 nM each time.

With `CCCC[C@@H](C(=O)O)N(C)C(=O)C[C@H](Cc1ccc(F)cc1)NC(=O)CNC(=O)[C@@H](C)NC(=O)[C@@H](N)Cc1c(C)cc(O)cc1C` [compound 145], the EC50 at μ-opioid receptor (MOR) and on δ-opioid receptor (DOR) was less than 1 nM throughout.

Regarding `CCCC[C@@H](C(=O)O)N(C)C(=O)C[C@H](Cc1ccccc1Br)NC(=O)CNC(=O)[C@@H](C)NC(=O)[C@@H](N)Cc1c(C)cc(O)cc1C` [compound 146], the EC50 on μ-opioid receptor (MOR) and at δ-opioid receptor (DOR) was less than 1 nM each time.

As to `CCCC[C@@H](C(=O)O)N(C)C(=O)C[C@H](Cc1ccc(I)cc1)NC(=O)CNC(=O)[C@@H](C)NC(=O)[C@@H](N)Cc1c(C)cc(O)cc1C` [compound 150], the EC50 at μ-opioid receptor (MOR) and on δ-opioid receptor (DOR) was less than 1 nM in each case.

For `CCCC[C@@H](C(=O)O)N(C)C(=O)C[C@H](Cc1cccc(Cl)c1)NC(=O)CNC(=O)[C@@H](C)NC(=O)[C@@H](N)Cc1c(C)cc(O)cc1C` [compound 151], the EC50 on μ-opioid receptor (MOR) and on δ-opioid receptor (DOR) was less than 1 nM in each case.

Consider `CCCC[C@@H](C(=O)O)N(C)C(=O)C[C@H](Cc1ccc(O)cc1)NC(=O)CNC(=O)[C@@H](C)NC(=O)[C@@H](N)Cc1c(C)cc(O)cc1C` [compound 152], for which the EC50 at μ-opioid receptor (MOR) and at δ-opioid receptor (DOR) was less than 1 nM throughout.

Consider `CCCC[C@@H](C(=O)O)N(C)C(=O)C[C@H](Cc1c[nH]c2ccccc12)NC(=O)CNC(=O)[C@@H](C)NC(=O)[C@@H](N)Cc1c(C)cc(O)cc1C` [compound 153], for which the values for the EC50 on μ-opioid receptor (MOR) and at δ-opioid receptor (DOR) were 1 to 10 nM and less than 1 nM, respectively.

`Cc1cc(O)cc(C)c1C[C@H](N)C(=O)N[C@H](C)C(=O)NCC(=O)N[C@H](CC(=O)N(C)[C@@H](CC1CCCCC1)C(=O)O)Cc1ccccc1` [compound 156]: the EC50 was less than 1 nM on μ-opioid receptor (MOR) and 1 to 10 nM at δ-opioid receptor (DOR).

On to `Cc1cc(O)cc(C)c1C[C@H](N)C(=O)N[C@H](C)C(=O)NCC(=O)N[C@H](CC(=O)N(C)[C@@H](Cc1ccccc1)C(=O)O)Cc1ccccc1` [compound 158], for which the EC50 on μ-opioid receptor (MOR) and at δ-opioid receptor (DOR) was less than 1 nM each time.

`Cc1cc(O)cc(C)c1C[C@H](N)C(=O)N[C@H](C)C(=O)NCC(=O)N[C@H](CC(=O)N(C)[C@@H](Cc1ccc(O)cc1)C(=O)O)Cc1ccccc1` [compound 160]: the EC50 on μ-opioid receptor (MOR) and at δ-opioid receptor (DOR) was less than 1 nM throughout.

Regarding `CCC[C@@H](C(=O)O)N(C)C(=O)C[C@H](Cc1ccccc1)NC(=O)CNC(=O)[C@@H](C)NC(=O)[C@@H](N)Cc1c(C)cc(O)cc1C` [compound 162], the EC50 at μ-opioid receptor (MOR) and on δ-opioid receptor (DOR) was less than 1 nM each time.

Consider `CCCC[C@@H](C(=O)O)N(C)C(=O)C[C@H](Cc1cccc(C)c1)NC(=O)CNC(=O)[C@@H](C)NC(=O)[C@@H](N)Cc1c(C)cc(C(N)=O)cc1C` [compound 164], for which the EC50 on μ-opioid receptor (MOR) and on δ-opioid receptor (DOR) was less than 1 nM in each case.

Turning to `CCCC[C@@H](C(=O)O)N(C)C(=O)C[C@H](Cc1ccc(O)cc1)NC(=O)CNC(=O)[C@@H](C)NC(=O)[C@@H](N)Cc1c(C)cc(C(N)=O)cc1C` [compound 168], the EC50 on μ-opioid receptor (MOR) was 1 to 10 nM; on δ-opioid receptor (DOR), less than 1 nM.

For `Cc1cc(O)cc(C)c1C[C@H](N)C(=O)N[C@H](CC(=O)O)C(=O)NCC(=O)N[C@H](CC(=O)N(C)[C@@H](CC(C)C)C(=O)O)Cc1ccccc1` [compound 169], the EC50 on μ-opioid receptor (MOR) and on δ-opioid receptor (DOR) was less than 1 nM each time.

`Cc1cc(O)cc(C)c1C[C@H](N)C(=O)N[C@H](CC(=O)O)C(=O)NCC(=O)N[C@H](CC(=O)N(C)[C@@H](C)C(=O)O)Cc1ccccc1` [compound 170]: the EC50 at μ-opioid receptor (MOR) and on δ-opioid receptor (DOR) was less than 1 nM in each case.

As for `Cc1cc(O)cc(C)c1C[C@H](N)C(=O)N[C@H](CC(=O)O)C(=O)NCC(=O)N[C@H](CC(=O)N(C)[C@@H](Cc1c[nH]c2ccccc12)C(=O)O)Cc1ccccc1` [compound 171], the EC50 on μ-opioid receptor (MOR) and on δ-opioid receptor (DOR) was less than 1 nM each time.

On to `CC[C@H](C)[C@@H](C(=O)O)N(C)C(=O)C[C@H](Cc1ccccc1)NC(=O)CNC(=O)[C@@H](CC(=O)O)NC(=O)[C@@H](N)Cc1c(C)cc(O)cc1C` [compound 172], for which the concentration for a half-maximal effect (EC50) on μ-opioid receptor (MOR) and on δ-opioid receptor (DOR) was less than 1 nM throughout.

On to `Cc1cc(O)cc(C)c1C[C@H](N)C(=O)N[C@H](CC(=O)O)C(=O)NCC(=O)N[C@H](CC(=O)N(C)[C@H](C(=O)O)C(C)C)Cc1ccccc1` [compound 173], for which the half-maximal effective concentration (EC50) at μ-opioid receptor (MOR) and at δ-opioid receptor (DOR) was less than 1 nM in each case.

On to `CCC[C@@H](C(=O)O)N(C)C(=O)C[C@H](Cc1ccccc1)NC(=O)CNC(=O)[C@@H](CC(=O)O)NC(=O)[C@@H](N)Cc1c(C)cc(O)cc1C` [compound 174], for which the EC50 on μ-opioid receptor (MOR) and at δ-opioid receptor (DOR) was less than 1 nM throughout.

On to `Cc1cc(O)cc(C)c1C[C@H](N)C(=O)N[C@H](CC(=O)O)C(=O)NCC(=O)N[C@H](CC(=O)N(C)[C@@H](CC1CCCCC1)C(=O)O)Cc1ccccc1` [compound 175], for which the EC50 at μ-opioid receptor (MOR) and at δ-opioid receptor (DOR) was less than 1 nM each time.

For `Cc1cc(O)cc(C)c1C[C@H](N)C(=O)N[C@H](CC(=O)O)C(=O)NCC(=O)N[C@H](CC(=O)N(C)[C@H](C(=O)O)c1ccccc1)Cc1ccccc1` [compound 176], the EC50 at μ-opioid receptor (MOR) and at δ-opioid receptor (DOR) was less than 1 nM throughout.

For the molecule `Cc1cc(O)cc(C)c1C[C@H](N)C(=O)N[C@H](CC(=O)O)C(=O)NCC(=O)N[C@H](CC(=O)N(C)[C@@H](Cc1ccccc1)C(=O)O)Cc1ccccc1` [compound 177], the EC50 on μ-opioid receptor (MOR) and on δ-opioid receptor (DOR) was less than 1 nM in each case.

As to `CCCC[C@@H](C(=O)O)N(C)C(=O)C[C@H](Cc1ccccc1)NC(=O)CNC(=O)[C@@H](CC(=O)O)NC(=O)[C@@H](N)Cc1c(C)cc(O)cc1C` [compound 178], the EC50 at μ-opioid receptor (MOR) and at δ-opioid receptor (DOR) was less than 1 nM throughout.

As for `Cc1cc(O)cc(C)c1C[C@H](N)C(=O)N[C@H](CC(=O)O)C(=O)NCC(=O)N[C@H](CC(=O)N(C)[C@@H](Cc1ccc(O)cc1)C(=O)O)Cc1ccccc1` [compound 180], the EC50 at μ-opioid receptor (MOR) and on δ-opioid receptor (DOR) was less than 1 nM throughout.

Take `CC[C@H](C)[C@@H](C(=O)O)N(C)C(=O)C[C@H](Cc1ccccc1)NC(=O)CNC(=O)[C@H](NC(=O)[C@@H](N)Cc1c(C)cc(O)cc1C)[C@H](C)O` [compound 182]: the EC50 at μ-opioid receptor (MOR) and at δ-opioid receptor (DOR) was less than 1 nM each time.

For the molecule `Cc1cc(O)cc(C)c1C[C@H](N)C(=O)N[C@@H](C(=O)NCC(=O)N[C@H](CC(=O)N(C)[C@@H](C)C(=O)O)Cc1ccccc1)[C@H](C)O` [compound 183], the EC50 on μ-opioid receptor (MOR) and at δ-opioid receptor (DOR) was less than 1 nM each time.

Turning to `CCC[C@@H](C(N)=O)N(C)C(=O)C[C@H](Cc1ccccc1)NC(=O)CNC(=O)[C@@H](C)NC(=O)[C@@H](N)Cc1c(C)cc(O)cc1C` [compound 184], the EC50 on μ-opioid receptor (MOR) and on δ-opioid receptor (DOR) was less than 1 nM in each case.

On to `Cc1cc(O)cc(C)c1C[C@H](N)C(=O)N[C@H](CCC(=O)O)C(=O)NCC(=O)N[C@H](CC(=O)N(C)[C@@H](C)C(=O)O)Cc1ccccc1` [compound 185], for which the EC50 is 1 to 10 nM on μ-opioid receptor (MOR) and less than 1 nM on δ-opioid receptor (DOR).

Consider `CC[C@H](C)[C@@H](C(=O)O)N(C)C(=O)C[C@H](Cc1ccccc1)NC(=O)CNC(=O)[C@@H](CCC(=O)O)NC(=O)[C@@H](N)Cc1c(C)cc(O)cc1C` [compound 186], for which the EC50 is 1 to 10 nM on μ-opioid receptor (MOR) and less than 1 nM at δ-opioid receptor (DOR).

For `Cc1cc(O)cc(C)c1C[C@H](N)C(=O)N[C@H](CCC(=O)O)C(=O)NCC(=O)N[C@H](CC(=O)N(C)CC(N)=O)Cc1ccccc1` [compound 187], the EC50 at μ-opioid receptor (MOR) is less than 1 nM; at δ-opioid receptor (DOR), 1 to 10 nM.
